Experiment: Stability of cannabinoid compounds and Vitamin E components in Beverage 1 (AB White) by LCMSMS
Type: physicochemical
Conditions: for Stability of Plant-Derived Cannabinoid Compounds in AB White, 8° C.: AB White stored at 8° C.; for Stability of Plant-Derived Cannabinoid Compounds in AB White, 21-25° C.: AB White stored at 21-25° C.
Description: The stability of the plant-derived cannabinoid compounds and Vitamin E components of the beverage stored 8° C. and at room temperature (21-25° C.) were monitored, over a period of 570 days via Liquid Chromatography-tandem Mass Spectrometry [LCMSMS, Agilent 6590, C18, 3×50 mm, 2.7 m (Agilent InfinityLab Poroshell 120 EC-C18), Electrospray Ionization detector]. The LCMSMS was calibrated for 0-1000 ng/ml cannabinoids with the same resin material used in the preparation of the concentrates. At each time period, 100 ml of beverage was diluted with 10 ml of methanol and injected into the LCMSMS for analysis.

CCCc1cc(O)c2c(c1)OC(C)(C)[C@@H]1CCC(C)=C[C@@H]21 [THCV, delta-9-tetrahydrocannabivarin]
3.40 µg/mL: Stability of Plant-Derived Cannabinoid Compounds in AB White, 21-25° C. (210 days) | Stability of Plant-Derived Cannabinoid Compounds in AB White, 21-25° C. (390 days)
3.6 µg/mL: Stability of Plant-Derived Cannabinoid Compounds in AB White, 8° C. (0 days) | Stability of Plant-Derived Cannabinoid Compounds in AB White, 21-25° C. (0 days)
3.54 µg/mL: Stability of Plant-Derived Cannabinoid Compounds in AB White, 8° C. (1 days) | Stability of Plant-Derived Cannabinoid Compounds in AB White, 21-25° C. (3 days) | Stability of Plant-Derived Cannabinoid Compounds in AB White, 21-25° C. (25 days) | Stability of Plant-Derived Cannabinoid Compounds in AB White, 21-25° C. (150 days)
3.59 µg/mL: Stability of Plant-Derived Cannabinoid Compounds in AB White, 8° C. (11 days) | Stability of Plant-Derived Cannabinoid Compounds in AB White, 8° C. (18 days) | Stability of Plant-Derived Cannabinoid Compounds in AB White, 8° C. (30 days) | Stability of Plant-Derived Cannabinoid Compounds in AB White, 8° C. (180 days) | Stability of Plant-Derived Cannabinoid Compounds in AB White, 21-25° C. (11 days) | Stability of Plant-Derived Cannabinoid Compounds in AB White, 21-25° C. (19 days)
3.45 µg/mL: Stability of Plant-Derived Cannabinoid Compounds in AB White, 21-25° C. (120 days)
3.55 µg/mL: Stability of Plant-Derived Cannabinoid Compounds in AB White, 8° C. (3 days) | Stability of Plant-Derived Cannabinoid Compounds in AB White, 8° C. (23 days) | Stability of Plant-Derived Cannabinoid Compounds in AB White, 8° C. (150 days) | Stability of Plant-Derived Cannabinoid Compounds in AB White, 21-25° C. (5 days) | Stability of Plant-Derived Cannabinoid Compounds in AB White, 21-25° C. (9 days) | Stability of Plant-Derived Cannabinoid Compounds in AB White, 21-25° C. (10 days) | Stability of Plant-Derived Cannabinoid Compounds in AB White, 21-25° C. (26 days) | Stability of Plant-Derived Cannabinoid Compounds in AB White, 21-25° C. (330 days)
3.30 µg/mL: Stability of Plant-Derived Cannabinoid Compounds in AB White, 8° C. (570 days) | Stability of Plant-Derived Cannabinoid Compounds in AB White, 21-25° C. (480 days) | Stability of Plant-Derived Cannabinoid Compounds in AB White, 21-25° C. (570 days)
3.62 µg/mL: Stability of Plant-Derived Cannabinoid Compounds in AB White, 21-25° C. (29 days)
3.52 µg/mL: Stability of Plant-Derived Cannabinoid Compounds in AB White, 8° C. (29 days) | Stability of Plant-Derived Cannabinoid Compounds in AB White, 8° C. (330 days) | Stability of Plant-Derived Cannabinoid Compounds in AB White, 21-25° C. (22 days) | Stability of Plant-Derived Cannabinoid Compounds in AB White, 21-25° C. (180 days) | Stability of Plant-Derived Cannabinoid Compounds in AB White, 21-25° C. (300 days)
3.60 µg/mL: Stability of Plant-Derived Cannabinoid Compounds in AB White, 8° C. (2 days) | Stability of Plant-Derived Cannabinoid Compounds in AB White, 8° C. (8 days) | Stability of Plant-Derived Cannabinoid Compounds in AB White, 8° C. (22 days) | Stability of Plant-Derived Cannabinoid Compounds in AB White, 21-25° C. (16 days)
3.47 µg/mL: Stability of Plant-Derived Cannabinoid Compounds in AB White, 8° C. (270 days) | Stability of Plant-Derived Cannabinoid Compounds in AB White, 8° C. (390 days) | Stability of Plant-Derived Cannabinoid Compounds in AB White, 21-25° C. (12 days) | Stability of Plant-Derived Cannabinoid Compounds in AB White, 21-25° C. (90 days) | Stability of Plant-Derived Cannabinoid Compounds in AB White, 21-25° C. (450 days)
3.32 µg/mL: Stability of Plant-Derived Cannabinoid Compounds in AB White, 8° C. (540 days) | Stability of Plant-Derived Cannabinoid Compounds in AB White, 21-25° C. (510 days)
3.51 µg/mL: Stability of Plant-Derived Cannabinoid Compounds in AB White, 8° C. (19 days) | Stability of Plant-Derived Cannabinoid Compounds in AB White, 21-25° C. (17 days)
3.58 µg/mL: Stability of Plant-Derived Cannabinoid Compounds in AB White, 8° C. (5 days) | Stability of Plant-Derived Cannabinoid Compounds in AB White, 8° C. (10 days) | Stability of Plant-Derived Cannabinoid Compounds in AB White, 8° C. (60 days) | Stability of Plant-Derived Cannabinoid Compounds in AB White, 21-25° C. (2 days)
3.57 µg/mL: Stability of Plant-Derived Cannabinoid Compounds in AB White, 8° C. (16 days) | Stability of Plant-Derived Cannabinoid Compounds in AB White, 21-25° C. (23 days)
3.41 µg/mL: Stability of Plant-Derived Cannabinoid Compounds in AB White, 21-25° C. (240 days)
3.34 µg/mL: Stability of Plant-Derived Cannabinoid Compounds in AB White, 8° C. (510 days)
3.46 µg/mL: Stability of Plant-Derived Cannabinoid Compounds in AB White, 8° C. (300 days) | Stability of Plant-Derived Cannabinoid Compounds in AB White, 21-25° C. (420 days)
3.48 µg/mL: Stability of Plant-Derived Cannabinoid Compounds in AB White, 21-25° C. (1 days) | Stability of Plant-Derived Cannabinoid Compounds in AB White, 21-25° C. (15 days) | Stability of Plant-Derived Cannabinoid Compounds in AB White, 21-25° C. (30 days)
3.56 µg/mL: Stability of Plant-Derived Cannabinoid Compounds in AB White, 8° C. (15 days) | Stability of Plant-Derived Cannabinoid Compounds in AB White, 8° C. (24 days) | Stability of Plant-Derived Cannabinoid Compounds in AB White, 8° C. (25 days) | Stability of Plant-Derived Cannabinoid Compounds in AB White, 8° C. (90 days) | Stability of Plant-Derived Cannabinoid Compounds in AB White, 8° C. (120 days) | Stability of Plant-Derived Cannabinoid Compounds in AB White, 8° C. (240 days) | Stability of Plant-Derived Cannabinoid Compounds in AB White, 21-25° C. (270 days)
3.50 µg/mL: Stability of Plant-Derived Cannabinoid Compounds in AB White, 8° C. (12 days) | Stability of Plant-Derived Cannabinoid Compounds in AB White, 8° C. (360 days) | Stability of Plant-Derived Cannabinoid Compounds in AB White, 21-25° C. (18 days) | Stability of Plant-Derived Cannabinoid Compounds in AB White, 21-25° C. (60 days)
3.49 µg/mL: Stability of Plant-Derived Cannabinoid Compounds in AB White, 8° C. (420 days) | Stability of Plant-Derived Cannabinoid Compounds in AB White, 21-25° C. (360 days)
3.44 µg/mL: Stability of Plant-Derived Cannabinoid Compounds in AB White, 8° C. (210 days) | Stability of Plant-Derived Cannabinoid Compounds in AB White, 8° C. (450 days) | Stability of Plant-Derived Cannabinoid Compounds in AB White, 8° C. (480 days) | Stability of Plant-Derived Cannabinoid Compounds in AB White, 21-25° C. (540 days)
3.61 µg/mL: Stability of Plant-Derived Cannabinoid Compounds in AB White, 8° C. (9 days) | Stability of Plant-Derived Cannabinoid Compounds in AB White, 8° C. (17 days)
3.63 µg/mL: Stability of Plant-Derived Cannabinoid Compounds in AB White, 8° C. (26 days) | Stability of Plant-Derived Cannabinoid Compounds in AB White, 21-25° C. (8 days) | Stability of Plant-Derived Cannabinoid Compounds in AB White, 21-25° C. (24 days)
